One series is described as follows: Caco-2 cell permeability. Format: in vitro ADME. To be noted: human, pH 7.4, Caco-2 monolayer, apical to basolateral. The protocol:
(§1) The next step was an in vitro ADMET profiling of the best seven compounds so far: 9, 11, 14, 19, 20, 21, and 27. The compounds were tested for their kinetic solubility (1% DMSO in PBS, pH 7.4), lipophilicity (chromatographic Log D7.4 value), cellular permeability (using Caco-2 cells), and metabolic stability (using mouse and human liver S9 fractions) (see Table 3).
MTT Assay: Viability of HEK293 cells ~48 hours after treatment […]
Fig S4: MTT assay for compounds 11, 14, 19, 20 and 21 using HEK293 cells. Values are means of […]
Permeability of the compounds was assessed using Caco2 monolayers grown on Transwell® (3460 Costar, Corning). In brief, cells were seeded 60.000 cells/well in 12-well Transwell plates in DMEM medium supplemented with 10% FCS and 1% NEAA. Cells were grown for 7 to 9 days with medium replacement every other day until they reached a tight monolayer. Tightness was defined as transepithelial resistance (TEER) values >300 Ω/cm² (measured using an EVOM Volt-Ohmmeter, World Precision Instruments). At the day of permeability as say, the compound stock solutions in DMSO were diluted to 10µM in Krebs -Ringer-buffer (KRB, pH 7.4). Cells treated with KRB only served as control. Monolayer was washed two times with prewarmed KRB and incubated with 500 µl sample on the apical compartment. Samples from the basolateral side were drawn at t = 0, 15, 30, 60, 120, 180 and 300 min and replaced with fresh buffer. The plates were incubated for 5 h in a cell culture incubator with lateral shaking (200 rpm). TEER values were measured again at the end of the permeability test. Compound concentration was determined with HPLC-ESI-MS/MS in SRM mode and calculated for the cumulative transport. Values are means of three replicates.
(In general: Caco-2 monolayers are a common model of the intestinal barrier.)

Series [1] has as its system LANA-mediated replication of TR-containing plasmid pGTR4:73 in HEK293 cells. Briefly: Cell-based replication assay (Southern blot). To be noted: Homo sapiens. The source says:
Figure 3 (A) Illustration of the replication assay. […] (C) Bar graph of the intensity of the pGTR4:73 band after digestion with MfeI and DpnI on the Southern blot shown in panel B at different concentrations for compound 20. Values are means of two replicates.
For the replication assay (Figure 3A), plasmids containing four copies of the terminal repeat of the viral genome and a LANA expression cassette are transfected into HEK293 cells. […] The cells that can express LANA will now amplify the plasmids with the help of LANA and maintain them over several days of cell growth. Where LANA is not expressed, only the transfected plasmids remain and are slowly thinned out by cell growth. After transfection, cells are treated with the compounds or DMSO and allowed to grow for three days. Then, the plasmid DNA is isolated from the cell. The DNA is digested in two separate batches. First, to linearize them (MfeI) and second, with an enzyme (DpnI) that only digests DNA that has a specific methylation pattern derived from the bacteria, in which these plasmids had been amplified. […] One batch contains both enzymes, and only the replicated linearized DNA remains there. The second batch (control) contains only the linearizing enzyme. […] The DNA is separated on a gel by electrophoresis and transferred to a membrane for immobilization (Southern blot). The DNA can then be visualized on this membrane using an enzyme-labeled probe, since the enzyme can generate chemiluminescence with a specific substrate. This assay is designed to specifically probe the LANA-mediated replication of plasmid DNA indicating on-target cellular activity. We performed the assay in a concentration range between 15.625 and 62.5 μM. For compound 20, we observed the strongest inhibitory effect (Figure 3B,C).
This assay is based on protocols described previously and was modified as described in the following. 4 8 x 10^5 HEK 293 cells were plated per well in a 6-well plate. […]

A short description of a further series: Kinetic solubility. Format: physicochemical. To be noted: PBS with 1% DMSO; 1% DMSO in PBS, pH 7.4. As to the method: as §1
The desired compounds were sequentially diluted in DMSO in a 96-well plate. 1.5 µL of each well were transferred into another 96-well plate and mixed with 148.5 µL of PBS. Plates were shaken for 5 min at 600 rpm at room temperature (r.t.), and the absorbance at 620 nm was measured. Absorbance values were normalized by blank subtraction and plotted using GraphPad Prism 8.4.2 (GraphPad Software, San Diego, CA, USA). Solubility (S) was determined based on the First X value of AUC function using a threshold of 0.005. […]

Like-named read-outs stand apart in the source and are kept apart here.

`COc1ccc(-c2cc(C)c(-n3cc(-c4ccc(C(=O)O)cc4)nn3)cn2)c(Cl)c1` [Compound 20] yielded a Papp A→B at 5 h, 10 µM in “Caco-2 cell permeability” of 10.3 ± 2.3 ×10⁻⁶ cm/s. The compound further had an inhibition at 62.5 µM in series [1] (72 h, HEK293 cells, 62.5 μM, three days of treatment) of 67%. For the same compound, the IC50 in series [1] (72 h, HEK293 cells, three days of treatment, estimated from Southern blot, read-out: IC50 value (southern blot)) was 33.2 ± 3.6 µM; in series [1] (Fig S5B, HEK293 replication assay, read-out: x0 of logistic fit, sigmoidal plot of southern blot (converted)) it was 33.2 µM. This compound also yielded a solubility (kinetic) at 5 min in the series “Kinetic solubility” greater than 200 µM.

The term Papp A→B denotes the apparent permeability from the apical to the basolateral side of a cell layer. One may read the inhibition as the relative decrease from the control value, in per cent. Read a high inhibition as a strong effect. One may read the kinetic solubility as solubility judged after dilution from a stock solution rather than from solid.
